According to patent US20050250784A1 (Miikana Therapeutics Corporation, priority 2004, published 2005):

What follows are compounds tested on HDAC (HeLa cell nuclear extract, a mosaic of HDAC enzymes) (assay: In vitro fluorescent histone deacetylase assay (Biomol HDAC fluorescent activity kit)). Conditions: compound concentration 100 μM; HeLa cell nuclear extract as HDAC source; substrate 50 μM, 10 min, room temperature.
Format: biochemical
Protocol: Histone deacetylase (HDAC) activity assays were performed using the HDAC fluorescent activity assay/drug discovery kit (Biomol Research Laboratories, Plymouth Meeting, Pa.) essentially according to the manufacturer's instructions. The included HeLa cell nuclear extract, which contains a mosaic of HDAC enzymes and other nuclear factors, was used as the source of HDAC activity. The final substrate concentration in the assay mixture was 50 μM. The reaction was allowed to proceed for 10 min at room temperature before stopping the reaction. Test compounds were prepared as 20 mM stock solutions in DMSO (Molecular Biology grade, Sigma-Aldrich Co., St. Louis, Mo.) and stored at −70° C. Serial dilutions of test compounds were prepared in assay buffer immediately prior to testing. DMSO was determined in a separate trial to have no significant effect on the activity of this assay at concentrations up to 5%; the final DMSO concentration in the wells was no more than 2% and therefore DMSO effects were safely neglected. Assays were performed in white polystyrene 96-well half-area assay plates (Corning, Corning, N.Y.) and measured on a Wallace 1420 fluorescent plate reader (Wallac Oy, Turku, Finland) with an excitation wavelength of 355 nm, an emission wavelength of 460 nm, and a 1 sec signal averaging time.

Point of comparison: `O=C(NO)c1cnc(N2CCN(S(=O)(=O)c3ccc(-c4cccc(F)c4)cc3)CC2)s1` [Example 261], “% inhibition HDAC @ 100 μM” value 95%. Against it:
- CC(C)N(C)Cc1cccc(-c2ccc(S(=O)(=O)N3CCN(c4ncc(C(=O)NO)s4)CC3)cc2)c1 [Example 287, 2-{4-[(3′-[isopropyl(methyl)amino]methyl]-1,1′-biphenylsulfonyl]-piperazin-1-yl}-1,3-thiazole-5-carboxylic acid hydroxyamide] — higher, 99%
- O=C(NO)c1cnc(N2CCN(S(=O)(=O)c3cc4ccccc4s3)CC2)s1 [Example 243, 2-[4-(2-benzothiphenesulfonyl)-piperazin-1-yl]-thiazole-5-carboxylic acid hydroxyamide] — higher, 99%
- O=C(NO)c1cnc(N2CCN(S(=O)(=O)c3ccc(-c4cncnc4)cc3)CC2)s1 [Example 291, 2-[4-{(4-pyrimidine)benzenesulfonyl}-piperazin-1-yl]-thiazole-5-carboxylic acid hydroxyamide] — higher, 99%
- O=C(NO)c1cnc(N2CCN(S(=O)(=O)c3cccc(CN4CCCC4)c3)CC2)s1 [Example 298] — higher, 98%
- O=C(NO)c1cnc(N2CCN(S(=O)(=O)c3ccc(CN4CCCC4)cc3)CC2)s1 [Example 305] — higher, 99%
- CCN(C)Cc1cccc(-c2ccc(S(=O)(=O)N3CCN(c4ncc(C(=O)NO)s4)CC3)cc2)c1 [Example 286, 2-{4-[(3′-[ethyl(methyl)amino]methyl]-1,1′-biphenylsulfonyl]piperazin-1-yl}-1,3-thiazole-5-carboxylic acid hydroxyamide] — higher, 99%
- Cc1cccc(Cl)c1S(=O)(=O)N1CCN(c2ncc(C(=O)NO)s2)CC1 [Example 238, 2-[4-(2-methyl-6-chlorophenylsulfonyl)-piperazin-1-yl]-thiazole-5-carboxylic acid hydroxyamide] — higher, 100%
- O=C(NO)c1cnc(N2CCN(S(=O)(=O)c3ccc(Br)s3)CC2)s1 [Example 255, 2-{4-[(5-bromothien-2-yl)sulfonyl]piperazin-1-yl}-N-hydroxy-1,3-thiazole-5-carboxamide] — lower, 29%
- O=C(NO)c1cnc(N2CCN(S(=O)(=O)c3ccc(-c4cccc(CN5CCCCC5)c4)cc3)CC2)s1 [Example 273] — higher, 100%
- O=C(NO)c1cnc(N2CCN(S(=O)(=O)c3ccc(Oc4ccccc4)nc3)CC2)s1 [Example 247, 2-[4-(2-phenoxypyridine-5-sulfonyl)-piperazin-1-yl]-thiazole-5-carboxylic acid hydroxyamide] — higher, 96%
- CN(C)Cc1cccc(S(=O)(=O)N2CCN(c3ncc(C(=O)NO)s3)CC2)c1 [Example 297] — higher, 99%
- O=C(NO)c1cnc(N2CCN(S(=O)(=O)c3ccc(-c4ccc(CN5CCCC5)s4)cc3)CC2)s1 [Example 288] — higher, 99%
- CCCCS(=O)(=O)N1CCN(c2ncc(C(=O)NO)s2)CC1 [Example 253, 2-[4-(n-butylsulfonyl)-piperazin-1-yl]-thiazole-5-carboxylic acid hydroxyamide] — lower, 94%
- CC(=O)Nc1ccc(-c2ccc(S(=O)(=O)N3CCN(c4ncc(C(=O)NO)s4)CC3)cc2)cc1 [Example 292] — higher, 100%
- O=C(NO)c1cnc(N2CCN(S(=O)(=O)c3ccc(-c4ccc5c(c4)OCO5)cc3)CC2)s1 [Example 260, 2-(4-{[4-(1,3-benzodioxol-5-yl)phenyl]sulfonyl}piperazin-1-yl)-1,3-thiazole-5-carboxylic acid hydroxyamide] — higher, 99%
- O=C(NO)c1cnc(N2CCN(S(=O)(=O)c3ccc(-c4sccc4CN4CCCC4)cc3)CC2)s1 [Example 289] — higher, 99%
- CN(C)Cc1ccc(S(=O)(=O)N2CCN(c3ncc(C(=O)NO)s3)CC2)cc1 [Example 295] — higher, 98%
